Patent publication US20240368121A1, “ESTROGEN RECEPTOR DEGRADERS, PHARMACEUTICAL COMPOSITIONS THEREOF, AND THEIR THERAPEUTIC APPLICATIONS” (BioTheryX, Inc., priority 2021, published 2024)

Assays:
Type in all cases: cell-based
MCF7 cells = test: Cell viability assay ([…]-GLO, 6-day treatment); conditions: Homo sapiens, MCF7, 144 h; MCF-7 cells, 6 days, CTG; read-out: Inhibition of Cancerous Cells IC50 MCF-7
How it was run: (§1)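 MCF7 (MEM) and T47D (RPMI with insulin), both with 10% FBS, at 1,000 cells/well, treated with a 10-point compound dose series for 6 days, with medium and compound refreshed once. Viability read by CellTiter-Glo luminescence.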

T47D cells = test: Cell viability assay ([…]-GLO, 6-day treatment); conditions: Homo sapiens, 144 h, 6 days, CTG, read-out: Inhibition of Cancerous Cells IC50 T47D
How it was run: as §1

ERα = biological target: T1, ERα (Homo sapiens, UniProt P03372); test: Protein degradation assay: ERα in MCF-7 cells via western blot; conditions: 6 h; for ERα Protein Degradation 1 nM: 1 nM compound; for ERα Protein Degradation 10 nM: 10 nM compound; for ERα Protein Degradation 100 nM: 100 nM compound
T1 construct: degrading an ERα in MCF-7 cells via a western blot; endogenous in cells; host or cells: MCF-7
T1 sequence (P03372 1-595): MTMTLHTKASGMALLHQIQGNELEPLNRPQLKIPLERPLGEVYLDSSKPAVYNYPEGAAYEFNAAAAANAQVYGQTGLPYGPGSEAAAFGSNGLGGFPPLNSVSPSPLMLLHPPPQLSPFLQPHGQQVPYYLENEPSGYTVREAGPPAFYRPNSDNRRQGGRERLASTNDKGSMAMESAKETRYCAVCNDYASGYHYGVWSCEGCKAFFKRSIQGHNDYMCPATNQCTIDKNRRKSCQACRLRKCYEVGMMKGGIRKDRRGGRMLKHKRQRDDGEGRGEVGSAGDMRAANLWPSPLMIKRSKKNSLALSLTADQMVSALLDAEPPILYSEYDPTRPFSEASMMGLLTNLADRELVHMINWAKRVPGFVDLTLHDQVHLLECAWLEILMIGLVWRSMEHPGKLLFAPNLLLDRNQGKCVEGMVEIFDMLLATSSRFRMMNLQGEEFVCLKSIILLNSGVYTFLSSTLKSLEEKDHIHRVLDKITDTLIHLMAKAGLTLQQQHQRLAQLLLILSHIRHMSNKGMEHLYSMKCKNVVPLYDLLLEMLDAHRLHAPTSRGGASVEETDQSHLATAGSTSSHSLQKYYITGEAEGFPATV
How it was run: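 MCF-7 cells in MEM/10% FBS with insulin, seeded 300,000/well, treated 6 h at set concentrations (e.g., 1 nM–1 μM). Whole-cell lysates immunoblotted for ERα with GAPDH loading control, chemiluminescent detection; percentage degradation reported in binned categories (≥50%, 25–50%, 10–25%, <10%).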

| Compound | IC50 (MCF7 cells) [nM] | IC50 (T47D cells) [nM] | ERα Protein Degradation 1 nM (ERα) | ERα Protein Degradation 10 nM (ERα) | ERα Protein Degradation 100 nM (ERα) |
| --- | --- | --- | --- | --- | --- |
| CN(C(=O)CN1CCN(CC2CCN(c3ccc([C@@H]4c5ccc(O)cc5CC[C@@H]4c4ccccc4)cc3)CC2)CC1)c1cccc(NC2CCC(=O)NC2=O)c1 (stereo partly drawn) [Compound B20, N-(3-((2,6-Dioxopiperidin-3-yl)amino)phenyl)-2-(4-((1-(4-((1R,2S)-6-hydroxy-2-phenyl-1,2,3,4-tetrahydronaphthalen-1-yl)phenyl)piperidin-4-yl)methyl)piperazin-1-yl)-N-methylacetamide] | 5.7 | 0.93 | B (a percentage degradation value of less than 50% and no less than 25%) | C (a percentage degradation value of less than 25% and no less than 10%) | D (a percentage degradation value of less than 10%) |
| O=C1CCC(c2ccc(OCC(=O)N3CCN(CCCCOc4ccc([C@@H]5c6ccc(O)cc6CC[C@@H]5c5ccccc5)cc4)CC3)cc2)C(=O)N1 (stereo partly drawn) [Compound B6, 3-(4-(2-(4-(4-(4-((1R,2S)-6-hydroxy-2-phenyl-1,2,3,4-tetrahydronaphthalen-1-yl)phenoxy)butyl)piperazin-1-yl)-2-oxoethoxy)phenyl)piperidine-2,6-dione] | 0.22 | 0.18 | C (a percentage degradation value of less than 25% and no less than 10%) | C (a percentage degradation value of less than 25% and no less than 10%) | C (a percentage degradation value of less than 25% and no less than 10%) |

More lines, main results first:

| IC50 (MCF7 cells) [nM] | IC50 (T47D cells) [nM] | Compound | ERα Protein Degradation 1 nM (ERα) | ERα Protein Degradation 10 nM (ERα) | ERα Protein Degradation 100 nM (ERα) |
| --- | --- | --- | --- | --- | --- |
| 1.8 | 1.3 | Cc1c(-c2ccc(O)cc2)n(Cc2ccc(OCCCCN3CCN(C(=O)COc4ccc5c(N6CCC(=O)NC6=O)nn(C)c5c4)CC3)cc2)c2ccc(O)cc12 [Compound E16, 1-(6-(2-(4-(4-(4-((5-Hydroxy-2-(4-hydroxyphenyl)-3-methyl-1H-indol-1-yl)-methyl)phenoxy)butyl)piperazin-1-yl)-2-oxoethoxy)-1-methyl-1H-indazol-3-yl)dihydro-pyrimidine-2,4(1H,3H)-dione] | C (a percentage degradation value of less than 25% and no less than 10%) | C (a percentage degradation value of less than 25% and no less than 10%) | D (a percentage degradation value of less than 10%) |
| 0.09 | 0.02 | Cc1c(-c2ccc(O)cc2)n(Cc2ccc(OCCCCNCc3ccc(OCc4scc5c4CN(C4CCC(=O)NC4=O)C5=O)cc3)cc2)c2ccc(O)cc12 (stereo not shown) [Compound E5, 3-(1-((4-(((4-(4-((5-hydroxy-2-(4-hydroxyphenyl)-3-methyl-1H-indol-1-yl)-methyl)phenoxy)butyl)amino)methyl)phenoxy)methyl)-4-oxo-4H-thieno[3,4-c]pyrrol-5(6H)-yl)-piperidine-2,6-dione] | D (a percentage degradation value of less than 10%) | D (a percentage degradation value of less than 10%) | D (a percentage degradation value of less than 10%) |
| 0.45 | 0.25 | Cc1c(-c2ccc(O)cc2)n(Cc2ccc(OCCCCN3CCN(c4ccc5c(c4)CN(C4CCC(=O)NC4=O)C5=O)CC3)cc2)c2ccc(O)cc12 (stereo not shown) [Compound E2, 3-(5-(4-(4-(4-((5-Hydroxy-2-(4-hydroxyphenyl)-3-methyl-1H-indol-1-yl)methyl)-phenoxy)butyl)piperazin-1-yl)-1-oxoisoindolin-2-yl)piperidine-2,6-dione] | D (a percentage degradation value of less than 10%) | D (a percentage degradation value of less than 10%) | D (a percentage degradation value of less than 10%) |
